Results on 9 molecules are retold here after patent US6093714A, “Tricyclic benzazepine compounds” (priority 1995, dated 2000).

Data set [1] relates to allergic foot-pad edema reaction. In words: Immediate and late phase allergic response inhibition test (allergic foot-pad edema reaction). It is filed as in vivo, Wister male rats. To be noted: Rattus norvegicus; for inhibition in vivo at 20 mg/kg: po, 20 mg/kg orally, 10 min before induction. As to the method:
Immediate and late phase allergic response inhibition test
Wister male rats weighing of 200 g were provided. 1010 organisms of Bordetella pertussis and 1 mg of dinitrophenylated ovalbumin (hereinafter abbreviated to "DNP-OA") were intramuscularly administered into the foot pad of the limbs of the rats except for the right hind leg. Further, ten days after the administration, 5 pg/site DNP-OA was subcutaneously administered to the right hind leg to induce allergic foot-pad edema reaction. The inhibitory activity of the test compounds was determined in such a manner that the volume of edema 30 min after the induction of the allergic reaction was regarded as an immediate phase allergic response and the volume of edema 8 hr after the induction of the allergic reaction was regarded as a late phase allergic response. Each test compound was dissolved or suspended in a 0.25% Tween 80 solution, and the solution or suspension was orally administered at a dose of 20 mg/kg 10 min before the induction of the allergic reaction.
Only the 0.25% Tween 80 solution was administered to the control group of rats not treated with any test compound, and 100 mg/kg sodium cromoglicate was subcutaneously or orally administered to the positive control group of rats.
The percentage inhibition of the allergic foot-pad edema reaction was determined by the following equation.
Percentage inhibition of allergic foot-pad edema reaction=(A-B)/A×100
wherein A: average edema volume for the non-treated control group of rats; and
B: average edema volume for the group of rats with the test compound administered.

The conditions of data set [2]: cited from earlier work.
The test system of a further data set is intraperitoneal cells. In words: Histamine release reaction inhibition test (rat intraperitoneal cells, DNP-As antigen). The format is cell-based, Wistar male rat. To be noted: 10^-5 to 10^-10 M test compound, DNP-As stimulated intraperitoneal cells, 10^5 cells/ml, read-out: IC50 (dose of the test compound required for inhibiting the histamine release reaction by 50%). As to the method: Histamine release reaction inhibition test
(1) Preparation of antiserum
Rat anti-dinitrophenylated ascaris protein (hereinafter referred to as "DNP-As") serum was prepared according to the method established by Tada et al. (Tada, T. and Okumura, K., J. Immun. 106(4), 1971). Specifically, 1010 organisms of Bordetella pertussis and 1 mg of DNP-As were intramuscularly administered to the foot pad of the limbs of Brown norway male rats weighing 200 g, and, five days after the administration, 0.5 mg of DNP-As was intramuscularly administered to the back. Three days after that, blood was collected to prepare an antiserum. The titer of the antiserum was determined by using a 48-hr passive cutaneous anaphylaxis reaction using a rat and found to be 1:1000 to 1:2000.
(2) Induction of histamine release reaction and release reaction inhibitory activity
The above serum was diluted four times with physiological brine, and 1 ml of the diluted serum was intraperitoneally administered to a Wistar male rat. Two days after the administration, the abdominal cavity was washed with phosphate buffer, and intraperitoneal cells were collected. The cells were adjusted to 10^5 cells/ml and stimulated with 1 pg/ml DNP-As, and the amount of the histamine released on the supernatant was measured by the method established by Shore et al (Shore, P. A., Burkhalter, A. H. and Chon Jr. V. H. J. Pharm. Exp. Ther., 127 , 182-186 (1959)).
The amount of the released histamine treated with 10^-5 to 10^-10 M test compound was compared with that of non-treated group. The dose of the test compound required for inhibiting the histamine release reaction by 50% (IC50) was calculated based on the percentage inhibition. IC50 of sodium cromoglicate was used as a control.

[3] abbreviates: 0.5 h, edema 30 min after induction, read-out: Inhibition (%) Immediate phase response.
The mark [4] stands for this setting: edema 8 hr after induction, read-out: Inhibition (%) Late phase response.

Structures can show the parent of a compound that is named as a salt. Where two headings read alike, the source gives them in different places.

`O=C(O)c1cc(=O)c2c(OCC(O)COc3cccc4oc(C(=O)O)cc(=O)c34)cccc2o1` [Sodium cromoglicate, reference compound]: the inhibition in vivo at 100 mg/kg came out at 16% in data set [1] (0.5 h, oral administration, edema 30 min after induction, read-out: Inhibition (%) Immediate phase response); 75% in data set [1] (sc, 0.5 h, subcutaneous administration, edema 30 min after induction, read-out: Inhibition (%) Immediate phase response); 53% in data set [1] (sc, subcutaneous administration, edema 8 hr after induction, read-out: Inhibition (%) Late phase response); 20% in data set [1] (oral administration, edema 8 hr after induction, read-out: Inhibition (%) Late phase response). Further, the oral absorption result in data set [2] was “poor oral absorption”. Further, the IC50 – broadly, the midpoint of a concentration-inhibition curve – in the data set on intraperitoneal cells turned out to be 1800 nM.

As for `COC(=O)c1cc2c(s1)CCN(C(=O)CCc1ccc3c(=O)c4[nH]nnc4c(=O)[nH]c3c1)C2` [Example 7, 7-(2-(2-Methoxycarbonyl-4,5,6,7-tetrahydrothieno[3,2-c]pyridin-5-yl)carbonylethyl)-4(5H),10-dioxo-1H-1,2,3-triazolo[4,5-c][1]benzazepine], the inhibition in vivo at 20 mg/kg in data set [1] (setting [3]) is 20%; in data set [1] (setting [4]), -3%. Besides, the IC50 in the data set with intraperitoneal cells came out at 12 nM.

On to `O=C(COc1ccc2c(=O)c3[nH]nnc3c(=O)[nH]c2c1)N(Cc1ccccn1)Cc1ccccn1` [Example 18, 7-(N,N-Bis(2-pyridylmethyl)carbamoylmethyloxy)-4(5H),10-dioxo-1H-1,2,3-triazolo[4,5-c][1]benzazepine ditrifluoroacetate], for which the inhibition in vivo at 20 mg/kg amounted to 40% in data set [1] (setting [3]) and 5% in data set [1] (setting [4]). Also, the IC50 with intraperitoneal cells stood at 6.2 nM.

For `O=C(CCc1ccc2c(=O)c3[nH]nnc3c(=O)[nH]c2c1)N1CCc2ccccc2C1` [Example 6, 7-(2-(1,2,3,4-Tetrahydro-2-isoquinolyl)carbonylethyl)-4(5H),10-dioxo-1H-1,2,3-triazolo[4,5-c][1]benzazepine], the inhibition in vivo at 20 mg/kg in data set [1] (setting [3]) stood at 19%; in data set [1] (setting [4]) it was 29%. In the data set with intraperitoneal cells, the IC50 was determined as 4.5 nM.

Turning to `CCN(Cc1ccccn1)C(=O)CCc1ccc2c(=O)c3[nH]nnc3c(=O)[nH]c2c1` [Example 4, 7-(2-(N-Ethyl-N-(2-pyridyl)methyl)carbamoyl)ethyl-4(5H),10-dioxo-1H-1,2,3-triazolo[4,5-c][1]benzazepine], the inhibition in vivo at 20 mg/kg in data set [1] (setting [3]) was 48%; in data set [1] (setting [4]), 21%. For the same molecule, the IC50 in the data set with intraperitoneal cells came to 13 nM.

For `O=c1[nH]c2cc(/C=C/c3ccncc3)ccc2c(=O)c2[nH]nnc12` [Example 10, 4(5H),10-Dioxo-7-(2-(4-pyridyl)-(E)-ethenyl)-1H-1,2,3-triazolo[4,5-c][1]benzazepine trifluoroacetate], the inhibition in vivo at 20 mg/kg is 44% in data set [1] (setting [3]) and 59% in data set [1] (setting [4]). The IC50 in the data set on intraperitoneal cells was found to be 2.4 nM.

As to `Cc1cc2[nH]c(=O)c3nn[nH]c3c(=O)c2cc1O` [Example 28, 8-Hydroxy-7-methyl-4(5H),10-dioxo-1H-1,2,3-triazolo[4,5-c][1]benzazepine], the inhibition in vivo at 20 mg/kg turned out to be 51% in data set [1] (setting [3]) and 48% in data set [1] (setting [4]). Moreover, the IC50 with intraperitoneal cells was determined as 12 nM.

As for `CCN(Cc1ccccn1)C(=O)COc1ccc2c(=O)c3[nH]nnc3c(=O)[nH]c2c1` [Example 15, 7-(N-Ethyl-N-(2-pyridylmethyl)carbamoylmethyloxy)-4(5H),10-dioxo-1H-1,2,3-triazolo[4,5-c][1]benzazepine trifluoroacetate], the inhibition in vivo at 20 mg/kg came to 34% in data set [1] (setting [3]) and 25% in data set [1] (setting [4]). Also, the IC50 with intraperitoneal cells was 9.9 nM.

On to `CC(=O)Nc1ccc2c(=O)c3[nH]nnc3c(=O)[nH]c2c1` [Example 21, 7-Acetylamino-4(5H),10-dioxo-1H-1,2,3-triazolo[4,5-c][1]benzazepine], for which the inhibition in vivo at 20 mg/kg in data set [1] (setting [3]) was found to be 43%; in data set [1] (setting [4]), 26%. Besides, the IC50 in the data set on intraperitoneal cells was found to be 4.6 nM.
